Data on 67 compounds can be found in patent publication US20050288347A1, “Certain triazole-based compounds, compositions, and uses thereof” (priority 2004, published 2005).

The target of this assay is protein kinase. As to the kind of experiment: HTS ATP-utilizing enzyme assay, off-chip mobility-shift format (Caliper HTS 250). It is filed as biochemical, human. The conditions noted are these: kinase(s) for which the compound exhibits protein kinase inhibitory activity; test compound 10 μM; active = greater than three-sigma from the mean activity of inactive compounds. The text has this: The following procedures describe the reagent and plate preparation for a HTS of an ATP-utilizing enzyme, such as a protein kinase, run in an off-chip mobility-shift assay format. The following provides an HTS protocol for running a protein kinase HTS screen on a Caliper HTS 250 microfluidics system. The following parameters are dependent on the protein kinase used and can be determined by one skilled in the art as part of a typical assay development process. For example, the peptide substrate used can be identified from the current literature, by screening a peptide library of potential protein kinase substrates, or by other applicable means accepted in the field.
The following table provides typical screen assay parameters appropriate for a Caliper HTS 250 microfluidics system.
The reagents and buffers listed in the following table are generally applicable for developing and running an HTS screen on a human protein kinase using the Caliper HTS 250 system.
The following reagents were prepared using the previously described buffers.
A 2× Master Buffer solution was prepared by combining 200 mL of 1 M HEPES, pH 7.5, 2 mL of 10% Triton X-100, 20 mL of 10% BSA, and 778 mL of H2O.
Assays to determine the kinase inhibitory activity of chemical entities of the present disclosure were performed using a Caliper HTS 250 microfluidics device, Greiner U-bottom assay plates, a Multidrop for transfer of reagents, and Biomek FX (AMNCBM03) software. Initially, 2.4 μL of a 1 mM solution of a test compound in 100% DMSO was added to a well of the Greiner U-bottom plate. A single Greiner U-bottom plate having 24×16 wells could include multiple test compounds. […] Using the Biomek FX, 10 μL of 0.5 M EDTA was added by the span-8 to wells, indicated as 100% Control and 2.4 μL of 100% DMSO was added by the span-8 to wells, indicated as 0% Control. […] The total reaction volume in each well was 25 μL, and the concentration of the test compound was 10 μM. The assay plate was incubated for 2.5 hrs at 20° C. to 22° C. […] The inhibition of the ATP-utilizing enzyme, such as a particular protein kinase, was determined by measuring the ratio of the peptide substrate to phosphorylated product for each well of the assay plate using the Caliper HTS 250 system.
The use of three-sigma statistical limits represents a conservative method for declaring potential hits among targets. The three-sigma activity, as well as the mean population activity, can be different for each target enzyme.

Entries after “also recorded” stand apart in the source; their conditions may differ.

Take `CCn1c(SCC(=O)N2CCc3ccccc3C2)nnc1-c1cc2ccccc2cc1O`: the Kinase result is on record as “DAPK1; also recorded: AURORA-A”.
For `O=C(CSc1nnc(-c2ccc(O)cc2)n1Cc1ccco1)N1CCCc2ccccc21`, the Kinase entry is “GSK3-β; also recorded: GSK3-α”.
The value for `CCn1c(SCC(=O)N2CCCc3ccccc32)nnc1-c1cc2ccccc2cc1O` was “CDK2-cyclinA; also recorded: AURORA-A; also recorded: DAPK1”; that for `Cn1c(SCC(=O)N2CCCc3ccccc32)nnc1-c1cc2ccccc2cc1O` was “FYN and AURORA-A and DAPK1”; that for `COc1ccc(OCc2nnc(SCC(=O)N3CCCc4ccccc43)n2-c2ccc(C)cc2)cc1` was “LCK”.
For `O=C(CSc1nnc(-c2ccncc2)n1-c1ccc(F)cc1)Nc1nccs1`, the Kinase entry is listed as “GSK3-α; also recorded: GSK3-β; also recorded: CDK2-cyclinE”.
Consider `O=C(CSc1nnc(-c2ccncc2)n1-c1ccc(F)cc1)Nc1cccc(O)c1`, for which the Kinase result is “AURORA-A”.
`O=C(CSc1nnc(-c2ccc(O)cc2)n1Cc1ccco1)Nc1nccs1`: the Kinase entry is “GSK3-β and GSK3-α and MSK2”.
On to `CC(Sc1nnc(-c2ccc(O)cc2)n1Cc1ccco1)C(=O)Nc1ccc([N+](=O)[O-])cc1` (stereo not shown), for which the Kinase entry is on record as “LCK”.
In the case of `O=C(CSc1nnc(-c2ccc(O)cc2)n1Cc1ccco1)N1CCc2ccccc21`, the Kinase entry is recorded as “AURORA-A”.
Regarding `O=C(CSc1nnc(-c2ccccc2O)n1Cc1ccccc1)N(c1ccccc1)c1ccccc1`, the Kinase entry was “CDK2-cyclinA; also recorded: AURORA-A”.
The value for `O=C(CSc1nnc(-c2ccc(O)cc2)n1Cc1ccccc1)N1CCCCC1` was “GSK3-α; also recorded: GSK3-β”.
On to `O=C(CSc1nnc(CNc2ccc(F)cc2)n1Cc1ccccc1)Nc1cccc(O)c1`, for which the Kinase entry is on record as “CHEK2”.
The value for `CCn1c(SCC(=O)N(C(C)C)C(C)C)nnc1-c1cc2ccccc2cc1O` was “c-TAK1”; that for `CCn1c(SCC(=O)Nc2nc3c(s2)CCCC3)nnc1-c1cc2ccccc2cc1O` was “AURORA-A; also recorded: CDK2-cyclinE”; that for `CCn1c(SCC(=O)Nc2ccc(C)cc2)nnc1-c1ccc(O)cc1` was “AURORA-A”.
As to `Cc1ccc(NC(=O)CSc2nnc(CNc3cccc(C(F)(F)F)c3)n2-c2ccccc2)cc1`, the Kinase entry is on record as “MAPKAPK-2”.
As for `Cc1ccc(NC(=O)CSc2nnc(-c3ccccc3O)n2-c2ccc(C)cc2)cc1`, the entry is “AURORA-A”; as for `O=C(CSc1nnc(-c2ccccc2O)n1CCc1ccccc1)Nc1nnc(C(F)(F)F)s1`, “AURORA-A”.
As for `Cc1cc(NC(=O)CSc2nnc(-c3cc4ccccc4cc3O)n2C)no1`, the entry is “AURORA-A and FYN”; as for `Cn1c(SCC(=O)N2c3ccccc3Sc3ccccc32)nnc1-c1cc2ccccc2cc1O`, “AURORA-A”; as for `Cn1c(SCC(=O)Nc2nccs2)nnc1-c1cc2ccccc2cc1O`, “GSK3-β; also recorded: GSK3-α”.
The value for `COc1ccc(-c2nnc(SCC(=O)Nc3ccccc3O)n2-c2ccccc2)cc1OC` was “AURORA-A”; that for `CCn1c(SCC(=O)N2CCCC2)nnc1-c1ccc(S(=O)(=O)N2CCCCCC2)cc1` was “AURORA-A”.
Take `CCN(CC)C(=O)CSc1nnc(-c2ccc(S(=O)(=O)N3CCCCCC3)cc2)n1CC`: the Kinase result is recorded as “AURORA-A”.
Take `CCn1c(SCC(=O)Nc2cc(C)ccc2OC)nnc1-c1ccc(S(=O)(=O)N2CCCCCC2)cc1`: the Kinase result is reported as “DAPK1”.
Consider `Cn1c(SCC(=O)N2CCc3ccccc32)nnc1-c1ccc(N)cc1`, for which the Kinase entry is reported as “MAPKAPK-2”.
The value for `COc1ccc(-n2c(SCC(N)=O)nnc2-c2ccc(O)cc2)cc1` was “GSK3-β; also recorded: GSK3-α”; that for `COc1ccc2nc(NC(=O)CSc3nnc(-c4ccc(O)cc4)n3CC3CCCO3)sc2c1` (stereo not shown) was “GSK3-β; also recorded: PDGFRR-α; also recorded: GSK3-α”.
As for `O=C(CSc1nnc(-c2ccc(O)cc2)n1CC1CCCO1)NCCc1ccccc1` (stereo not shown), the entry is “MSK1”; as for `Cn1c(SCC(=O)Nc2nc3c(s2)CCCC3)nnc1-c1ccc(O)cc1`, “GSK3-β; also recorded: GSK3-α; also recorded: CDK2-cyclinE”; as for `Cc1ccc([N+](=O)[O-])cc1NC(=O)CSc1nnc(-c2ccc(O)cc2)n1C`, “GSK3-β; also recorded: GSK3-α”.
As for `Cn1c(SCC(=O)N2CCOCC2)nnc1-c1ccc(O)cc1`, the entry is “AURORA-A”.
Turning to `Cc1ccc(NC(=O)C(C)Sc2nnc(-c3ccc(O)cc3)n2-c2ccccc2)cc1` (stereo not shown), the Kinase result is recorded as “HCK”.
The value for `Cc1ccc(NCc2nnc(SCC(=O)Nc3cccc(O)c3)n2Cc2ccco2)c(C)c1` was “CHEK2”; that for `Cc1ccc(NCc2nnc(SCC(N)=O)n2CC2CCCO2)cc1Cl` (stereo not shown) was “AURORA-A”; that for `CCOc1ccc(NCc2nnc(SCC(=O)N3CCN(C)CC3)n2-c2ccc(C)cc2)cc1` was “FYN and AURORA-A”.
The value for `Cc1ccc(NC(=O)CSc2nnc(CNc3ccc(F)cc3)n2CC2CCCO2)cc1` (stereo not shown) was “AURORA-A”; that for `Cn1c(SCC(=O)Nc2cccc(O)c2)nnc1-c1ccco1` was “CSK”; that for `CC1CCN(C(=O)CSc2nnc(Cc3ccccc3)n2-c2cccc(Cl)c2)CC1` was “LCK”.
As for `COc1ccc(-n2c(Cc3ccccc3)nnc2SCC(=O)N2c3ccccc3Sc3ccccc32)cc1`, the entry is “SRC and LCK”; as for `O=C(CSc1nnc(Cc2ccccc2)n1C1CCCCC1)Nc1cccc(O)c1`, “AURORA-A”; as for `COc1ccccc1-n1c(SCC(=O)Nc2cccc(C(=O)O)c2)nnc1-c1ccccc1O`, “AURORA-A”.
`Sc1nnc(CCc2nc3ccccc3[nH]2)n1-c1cccc(Cl)c1`: the Kinase result is “GSK3-α”.
As to `CCOc1ccc(NCc2nnc(SCC(=O)Nc3cc(C(F)(F)F)ccc3Cl)n2-c2ccc(OC)cc2)cc1`, the Kinase result is “PAK2 and AURORA-A and FYN”.
As for `COCCn1c(SCC(=O)Nc2ccccc2F)nnc1-c1cc2ccccc2cc1O`, the entry is “AURORA-A”; as for `COc1ccc(NC(=O)CSc2nnc(-c3ccccc3O)n2-c2ccccc2)c(OC)c1`, “CDK1”.
The value for `CCOc1cc(NC(=O)c2cccs2)c(OCC)cc1NC(=O)CSc1nnc(-c2ccc(O)cc2)n1C` was “PDGFRR-α”; that for `CCn1c(SCC(=O)Nc2sc3c(c2C#N)CCCC3)nnc1-c1ccc(O)cc1` was “AURORA-A”; that for `Cn1c(SCC(=O)Nc2sc3c(c2C#N)CCCC3)nnc1-c1ccc(O)cc1` was “PRAK and CDK2-cyclinE and DYRK2”.
As for `Cn1c(SCC(=O)Nc2cccc(O)c2)nnc1-c1ccc(NS(C)(=O)=O)cc1`, the entry is “AURORA-A”.
For the compound `COc1ccc(CCNC(=O)CSc2nnc(-c3cc4ccccc4cc3O)n2C)cc1OC`, the Kinase entry is reported as “FYN”.
The value for `Cc1cc(NC(=O)CSc2nnc(-c3ccc(O)cc3)n2C)ccc1NC(=O)c1ccccc1C` was “GSK3-β; also recorded: GSK3-α”.
For `Cc1ccc(S(=O)(=O)Nc2ccc(-c3nnc(S)n3C)cc2)cc1`, the Kinase result is “AURORA-A; also recorded: CDK2-cyclinA; also recorded: CHEK2”.
Turning to `COc1ccc(-n2c(SC(C)C(=O)Nc3ccc(C(C)=O)cc3)nnc2-c2ccc(O)cc2)cc1` (stereo not shown), the Kinase result was “GSK3-β; also recorded: GSK3-α”.
Consider `CC(=O)c1ccc(NC(=O)CSc2nnc(C)n2-c2ccccc2)cc1`, for which the Kinase result was “AKT1”.
For `CCOc1ccc(NC(=O)CSc2nnc(-c3ccc(O)cc3)n2-c2ccccc2)cc1`, the Kinase result was “HCK”.
Turning to `COCCn1c(SCC(=O)Nc2ccc3c(c2)OCO3)nnc1-c1cc2ccccc2cc1O`, the Kinase result is on record as “AURORA-A”.
As to `O=C(CSc1nnc(-c2ccc(O)cc2)n1Cc1ccco1)NCc1ccc2c(c1)OCO2`, the Kinase entry was “CDK2-cyclinA and CDK5 and CDK2-cyclinE”.
The value for `COCCn1c(SCC(=O)NCc2ccc3c(c2)OCO3)nnc1-c1cc2ccccc2cc1O` was “AURORA-A”; that for `O=C(CSc1nnc(-c2ccc(O)cc2)n1-c1ccccc1)NCc1ccco1` was “GSK3-β; also recorded: GSK3-α”.
As for `CCOC(=O)c1sc(NC(=O)CSc2nnc(-c3ccc(O)cc3)n2CC2CCCO2)nc1C` (stereo not shown), the entry is “GSK3-β; also recorded: GSK3-α”; as for `CCOC(=O)c1c(NC(=O)CSc2nnc(-c3ccccc3O)n2-c2ccc(C)cc2)sc(C(C)=O)c1C`, “LCK”; as for `COC(=O)c1ccccc1NC(=O)CSc1nnc(-c2ccccc2O)n1CCc1ccccc1`, “AURORA-A”.
Turning to `COCCn1c(SCC(=O)Nc2ccccc2C(=O)OC)nnc1-c1cc2ccccc2cc1O`, the Kinase result is listed as “AURORA-A; also recorded: DAPK1”.
The value for `COC(=O)c1ccccc1NC(=O)CSc1nnc(CNc2ccc(F)cc2)n1CC1CCCO1` (stereo not shown) was “AURORA-A”; that for `COC(=O)c1sc(NC(=O)CSc2nnc(-c3ccc(NS(C)(=O)=O)cc3)n2C)nc1C` was “GSK3-β; also recorded: GSK3-α”.
